“And” between values parts separate entries of the source, which are not always exact repeats. Equal values may be shown once. Where a name gives a salt, the structure may show the parent alone.
What was measured:
acute toxicity (LD50) = test: acute toxicity (LD50); set-up: species or system white mice; conditions: mouse, in vivo; intravenous; read-out: single LD50
Semliki virus = tested on: Semliki virus; set-up: species or system white mice; conditions: mouse, in vivo
Herpes simplex 1 virus = tested on: Herpes simplex 1 virus; set-up: species or system white mice; conditions: mouse, in vivo
influenza virus A = influenza virus A experimental infection in white mice; assay type: in vivo; conditions: oral or intraperitoneal single dose 24 h before, 24 or 72 h after inoculation
[1] = tested on: Mouse peritoneal leucocytes
Protocol: (§1) In monolayer cellular cultures (L-cells, mouse embryonal fibroblasts, human diploid embryonal pulmonary fibroblasts), the interferon titre is measured and the antiviral resistance is simultaneously determined. […] Incubation of the cultures is carried out for 24 hours at 37° C.; The culture medium after determining its cytotoxicity microscopically is collected for the interferon titre measurement. The cells are rinsed in Hanks' saline solution and inoculated by 100 TCID50 virus of the vesicular stomatite (Indiana strain). The cytopathic effect and the infectious virus yield are specified the basis of which the state of the antiviral resistancy is determined.
(§2) The interferon titre is determined as follows: by the plaque-inhibition method in L-cells or in human embryonal diploid fibroblasts using the vesicular stomatite virus (Indiana strain) by a detector virus; by the cytopathic effect inhibition method of the same virus (using human embryonal diploid fibroblasts). It is expressed in IU/ml by comparing the reference preparations of mouse or human interferon.

L-cells [2] = tested on: L-cells
Protocol: as §1, §2

[3] = tested on: Human diploid embryonal fibroblasts
Protocol: as §1, §2

[4] = tested on: Mouse peritoneal leucocytes; test: cells; conditions: Leucocyte, read-out: MinIFN-IC (minimum interferon-inducing concentration)
Protocol: as §1, §2

L-cells [5] = test: cells; conditions: Mus musculus, read-out: MinIFN-IC (minimum interferon-inducing concentration)
Protocol: as §1, §2

[6] = tested on: Human diploid embryonal fibroblasts; test: cells; conditions: Fibroblast, read-out: MinIFN-IC (minimum interferon-inducing concentration)
Protocol: as §1, §2

[7] = tested on: some DNA and RNA-containing viruses; conditions: cellular cultures, background; cited from earlier work
serum interferon [8] = test: serum interferon titre in human volunteers; set-up: average geometrical interferon titre: dose or concentration left out as unconfirmed
Protocol: as §2

[9] = tested on: Mouse embryonal fibroblasts; test: interferon induction in mouse embryonal fibroblasts
Protocol: as §1, §2

serum interferon [10] = test: interferon-inducing activity in vivo in white mice (serum interferon titre)
Protocol: Serum samples for measuring the interferon titre are taken on the 6th, 12th, 24th, 48th, 72nd and 96th hour (mixed serum sample of minimum 8 animals).
as §2

[11] = internal / in vivo, background; cited from earlier work
[12] = intravenous, 0.1 mg/kg, 48th hour

Compound: OCCN(CCO)c1nc(N2CCCCC2)c2nc(N(CCO)CCO)nc(N3CCCCC3)c2n1 [Dipyridamole, 2,6-bis (diethanolamino)-4,8-dipiperidinopyramido [5,4-d]pyrimidine]
- LD50 (acute toxicity (LD50)): 150 mg/kg
- Lethality % M ± m (Semliki virus): 30.0 ± 15.27% and 40.0 ± 16.32%
- Lethality No. (Semliki virus): 3/10 and 4/10
- Mean survival time (Semliki virus): 22.6 ± 3.77 days and 20.7 ± 3.82 days
- Protection coefficient (Semliki virus): 2.4 and 1.8
- antiviral effect in oral application vs intraperitoneal (Semliki virus): much stronger
- protective effect (Semliki virus): marked protective effect
- t (Semliki virus): 3.02 and 2.64
- Lethality % M ± m (Herpes simplex 1 virus): 55.0 ± 11.41%
- Lethality No. (Herpes simplex 1 virus): 11/20
- Mean survival time (Herpes simplex 1 virus): 17.3 ± 2.64 days
- Protection coefficient (Herpes simplex 1 virus): 1.81
- antiviral effect in oral application vs intraperitoneal (Herpes simplex 1 virus): much stronger
- protective effect (Herpes simplex 1 virus): marked protective effect
- t (Herpes simplex 1 virus): 3.94
- protective effect (influenza virus A): marked protective effect
- Maximum interferon titre [1]: ≥ 256 IU/ml
- OptINF-IC (optimum interferon-inducing concentration) [1]: 100-1000
- interferon titre compared with double-stranded RNA of phage f2 [1]: higher than that induced by double-stranded RNA of phague f2 of E. coli
- optimum interferon-inducing concentration [1]: 100 µM
- Maximum interferon titre (L-cells [2]): ≥ 128 IU/ml
- OptINF-IC (optimum interferon-inducing concentration) (L-cells [2]): 30-300 micromol/1
- induced interferon titre (L-cells [2]): over 128 IU/ml
- induced interferon titres (L-cells [2]): exceed 128 IU/ml
- interferon production compared with poly I:C (L-cells [2]): markedly exceeds the interferon production of poly I:C
- Maximum interferon titre [3]: 16-32
- OptINF-IC (optimum interferon-inducing concentration) [3]: 100-300 micromol/1
- minimal effective concentration [4]: 3 µM
- minimal effective concentration (L-cells [5]): 10 µM
- minimal effective concentration [6]: 10 µM
- antiviral effect in in vitro testing [7]: antiviral effect
- Mean serum interferon titre, positive responders (serum interferon [8]; 0 hours after administration (baseline)): 5.2 ± 1.7 IU/ml
- subjects with marked raising of serum interferon level (serum interferon [8]; 100 mg single oral dose, 20 men and women, 24th and 48th hour): 80%
- Mean serum interferon titre, positive responders (serum interferon [8]; 24-48 hours after administration): 1069.0 ± 479.7 IU/ml
- increase of average geometrical interferon titres vs initial level (serum interferon [8]; 24-48 hours, oral): Over 200 time
- average geometrical interferon titre (serum interferon [8]; 24-48 hours, oral single doses as printed): 1069.0±479.7 IU/ml
- average geometrical interferon titre, initial level (serum interferon [8]; initial level before dipyridamole): 5.2±1.7 IU/ml
- treated subjects with marked interferon production (serum interferon [8]; oral, single doses (1-2 mg/kg)): 80%
- OptINF-IC (optimum interferon-inducing concentration) [9]: 300 micromol/1
- minimal effective concentration ([9]; Mus musculus, Fibroblast, read-out: MinIFN-IC (minimum interferon-inducing concentration)): 100 µM
- Maximum interferon titre ([9]; induced by OptINF-IC): 16 IU/ml
- preservation of high serum interferon levels (serum interferon [10]; even 96 hours after administration): relatively continuous preservation of the high interferon levels
- time of peak interferon levels (serum interferon [10]; intraperitoneal, 16.7 mg/kg): 24 to 48 h
- maximum titres / peak levels (serum interferon [10]; intraperitoneal, 16.7 mg/kg, 24-48th hour): 256 IU/ml
- interferon concentrations until the 120th hour (serum interferon [10]; intraperitoneal, 16.7 mg/kg, until 120th hour): Marked concentrations
- interferon-inducing activity of lower doses (serum interferon [10]; intraperitoneal, lower doses, under 0.1 mg/kg inclusive): lower but better marked activity
- effective doses (serum interferon [10]; intraperitoneal, "or more"): 0.1 to 16.7 mg/kg
- effective doses (serum interferon [10]; intravenous): 0.01 to 50 mg/kg
- Interferon titre in serum (serum interferon [10]; intravenous, 0.01 mg/kg, 72nd hour): 16 IU/ml
- Interferon titre in serum (serum interferon [10]; intravenous, 0.05 mg/kg, 24th hour): < 4 IU/ml
- Interferon titre in serum (serum interferon [10]; intravenous, 0.05 mg/kg, 48th hour): 64 IU/ml
- Interferon titre in serum (serum interferon [10]; intravenous, 0.05 mg/kg, 72nd hour): 32 IU/ml
- Interferon titre in serum (serum interferon [10]; intravenous, 0.1 mg/kg, 6th hour): ≤ 4 IU/ml
- Interferon titre in serum (serum interferon [10]; intravenous, 0.1 mg/kg, 12th hour): ≤ 4 IU/ml
- Interferon titre in serum (serum interferon [10]; intravenous, 0.1 mg/kg, 24th hour): ≤ 4 IU/ml
- Interferon titre in serum (serum interferon [10]; [12]): 128 IU/ml
- maximum titres (serum interferon [10]; [12]): 128 IU/ml
- Interferon titre in serum (serum interferon [10]; intravenous, 0.1 mg/kg, 72nd hour): 32 IU/ml
- Interferon titre in serum (serum interferon [10]; intravenous, 0.2 mg/kg, 24th hour): ≤ 4 IU/ml
- Interferon titre in serum (serum interferon [10]; intravenous, 0.2 mg/kg, 48th hour): 32 IU/ml
- Interferon titre in serum (serum interferon [10]; intravenous, 0.2 mg/kg, 72nd hour): 32 IU/ml
- Interferon titre in serum (serum interferon [10]; intravenous, 0.6 mg/kg, 6th hour): < 4 IU/ml
- Interferon titre in serum (serum interferon [10]; intravenous, 0.6 mg/kg, 12th hour): 8 IU/ml
- Interferon titre in serum (serum interferon [10]; intravenous, 0.6 mg/kg, 24th hour): 32 IU/ml
- Interferon titre in serum (serum interferon [10]; intravenous, 0.6 mg/kg, 48th hour): 16 IU/ml
- Interferon titre in serum (serum interferon [10]; intravenous, 0.6 mg/kg, 72nd hour): 16 IU/ml
- Interferon titre in serum (serum interferon [10]; intravenous, 1.8 mg/kg, 12th hour): 16 IU/ml
- Interferon titre in serum (serum interferon [10]; intravenous, 1.8 mg/kg, 24th hour): 16 IU/ml
- Interferon titre in serum (serum interferon [10]; intravenous, 1.8 mg/kg, 72nd hour): 8 IU/ml
- Interferon titre in serum (serum interferon [10]; intravenous, 5.5 mg/kg, 12th hour): 16 IU/ml
- Interferon titre in serum (serum interferon [10]; intravenous, 5.5 mg/kg, 24th hour): 16 IU/ml
- Interferon titre in serum (serum interferon [10]; intravenous, 17.7 mg/kg, 12th hour): 32 IU/ml
- Interferon titre in serum (serum interferon [10]; intravenous, 17.7 mg/kg, 24th hour): 16 IU/ml
- Interferon titre in serum (serum interferon [10]; intravenous, 50.0 mg/kg, 12th hour): 8 IU/ml
- Interferon titre in serum (serum interferon [10]; intravenous, 50.0 mg/kg, 24th hour): 8(4) IU/ml
- time of maximum interferon levels (serum interferon [10]; intravenous, higher doses than 0.1 mg/kg): 12 to 24 h
- time of maximum titres (serum interferon [10]; oral): 24 to 48 h
- serum interferon level at 12th hour (serum interferon [10]; oral, 6.25-100 mg/kg, 12th hour): 128-256 IU/ml
- peak serum interferon values (serum interferon [10]; oral, 12.5 or 25 mg/kg, 48th hour): 4096-8192 IU/ml
- maximum serum interferon titres (serum interferon [10]; oral, 24-48 hour): 4096-8192 IU/ml
- interferon levels at 120th hour (serum interferon [10]; oral): marked interferon levels in the blood
- interferon levels at 120th hour (serum interferon [10]; oral, listed as dipyridamole): higher than those in the control (placebo) group
- serum interferon level at 12th hour (serum interferon [10]; oral, single doses, 12th hour): 128-256 IU/ml

Compound: CCN(CC)CCOc1ccc2c(c1)C(=O)c1cc(OCCN(CC)CC)ccc1-2 [tilorone-hydrochloride]
- toxicity [11]: toxic and unsuitable for clinical application

Compound: poly I:C
- toxicity [11]: toxic internally

From patent US4499093A, “Interferon induction method” (Dso "Pharmachim", priority 1982, dated 1985)
